Read-outs that look alike come from different tables or passages of the source.
How the values were obtained:
[1] = target: T1, DAT (Rattus norvegicus, UniProt P23977); assay: biochemical; type: binding
T1 construct: their brains removed to an ice-cooled dish for dissection of the caudate putamen; from tissue; host or cells: rat caudate putamen homogenate

[2] = target: T2, SERT (Rattus norvegicus, UniProt P31652); assay: [3H]Citalopram Binding Assay, rat midbrain membranes; settings: for Ki: rat brain membranes, read-out: SERT [3H]citalopram Ki ± SEM; for Binding selectivity DAT/SERT: ratio of respective Ki values, greater than 1 = DAT selective
T2 construct: Membranes from frozen rat midbrain were homogenized; from tissue; host or cells: rat midbrain membranes
T2 sequence (P31652 whole entry): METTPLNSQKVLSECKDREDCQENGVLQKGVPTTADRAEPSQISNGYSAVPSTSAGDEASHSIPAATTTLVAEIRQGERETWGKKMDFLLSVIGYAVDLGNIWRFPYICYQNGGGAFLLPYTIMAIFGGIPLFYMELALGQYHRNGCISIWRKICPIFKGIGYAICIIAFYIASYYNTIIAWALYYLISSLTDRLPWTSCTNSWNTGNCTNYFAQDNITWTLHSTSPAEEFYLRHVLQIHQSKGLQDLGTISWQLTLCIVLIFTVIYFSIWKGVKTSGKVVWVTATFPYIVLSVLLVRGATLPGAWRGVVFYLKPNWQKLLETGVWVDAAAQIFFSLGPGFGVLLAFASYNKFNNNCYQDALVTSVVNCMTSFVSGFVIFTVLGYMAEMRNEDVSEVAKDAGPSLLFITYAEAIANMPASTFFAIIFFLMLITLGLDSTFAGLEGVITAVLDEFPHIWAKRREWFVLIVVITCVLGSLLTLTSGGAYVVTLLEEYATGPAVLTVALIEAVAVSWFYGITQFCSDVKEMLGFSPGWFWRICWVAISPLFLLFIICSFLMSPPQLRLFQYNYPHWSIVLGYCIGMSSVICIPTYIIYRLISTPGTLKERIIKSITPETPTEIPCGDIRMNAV

[3] = target: NET (Rattus norvegicus, UniProt Q63380); type: binding; settings: read-out: NET [3H]nisoxetine Ki ± SEM; rat brain membranes; incubation time 1 h
NET (Rattus norvegicus, UniProt Q63380), sequence (Q63380 1-617): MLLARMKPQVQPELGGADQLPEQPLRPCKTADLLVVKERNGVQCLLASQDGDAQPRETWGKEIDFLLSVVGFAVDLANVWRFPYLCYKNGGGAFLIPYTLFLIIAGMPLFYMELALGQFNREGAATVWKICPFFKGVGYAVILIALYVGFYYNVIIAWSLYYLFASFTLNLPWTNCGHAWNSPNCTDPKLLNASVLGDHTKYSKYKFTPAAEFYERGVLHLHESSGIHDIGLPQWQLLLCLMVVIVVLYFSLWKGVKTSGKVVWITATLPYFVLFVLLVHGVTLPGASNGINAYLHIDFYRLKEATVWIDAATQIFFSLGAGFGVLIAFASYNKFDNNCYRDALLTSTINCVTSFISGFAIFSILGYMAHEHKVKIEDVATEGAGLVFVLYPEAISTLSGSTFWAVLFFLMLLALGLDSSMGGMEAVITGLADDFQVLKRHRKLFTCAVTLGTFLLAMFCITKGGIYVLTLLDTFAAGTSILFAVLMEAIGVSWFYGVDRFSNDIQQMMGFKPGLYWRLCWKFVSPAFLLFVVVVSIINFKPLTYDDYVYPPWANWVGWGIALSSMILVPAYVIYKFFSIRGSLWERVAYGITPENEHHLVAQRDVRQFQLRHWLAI

[4] = tested on: NET; type: binding, rat; settings: ratio of respective Ki values; greater than 1 = DAT selective
[5] = target: T3, muscarinic M1 receptor (Rattus norvegicus, UniProt P08482); assay: [3H]Pirenzepine Binding Assay, rat brain membranes; settings: for Ki: rat brain membranes, read-out: M1 [3H]pirenzepine Ki ± SEM; for Binding selectivity DAT/M1: ratio of respective Ki values, greater than 1 = DAT selective
T3 construct: Membranes from frozen rat brains excluding cerebellum were thawed; from tissue; host or cells: rat brain (excluding cerebellum) membranes
T3 sequence (P08482 1-460): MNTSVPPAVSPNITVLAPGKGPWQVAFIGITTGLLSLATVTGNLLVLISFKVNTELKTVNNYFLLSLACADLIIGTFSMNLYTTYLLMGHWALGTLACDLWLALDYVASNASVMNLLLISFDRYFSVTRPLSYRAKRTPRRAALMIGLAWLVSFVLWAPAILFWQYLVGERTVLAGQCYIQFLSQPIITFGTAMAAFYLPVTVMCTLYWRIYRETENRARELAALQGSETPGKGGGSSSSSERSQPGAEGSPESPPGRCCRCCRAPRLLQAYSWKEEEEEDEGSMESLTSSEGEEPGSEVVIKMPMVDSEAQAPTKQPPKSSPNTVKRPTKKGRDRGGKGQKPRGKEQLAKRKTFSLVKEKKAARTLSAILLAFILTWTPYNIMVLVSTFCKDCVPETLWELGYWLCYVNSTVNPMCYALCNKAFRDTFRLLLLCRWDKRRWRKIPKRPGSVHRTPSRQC

[6] = read-out: DAT [3H]WIN 35,428 Ki ± SEM

T1 sequence (P23977 whole entry): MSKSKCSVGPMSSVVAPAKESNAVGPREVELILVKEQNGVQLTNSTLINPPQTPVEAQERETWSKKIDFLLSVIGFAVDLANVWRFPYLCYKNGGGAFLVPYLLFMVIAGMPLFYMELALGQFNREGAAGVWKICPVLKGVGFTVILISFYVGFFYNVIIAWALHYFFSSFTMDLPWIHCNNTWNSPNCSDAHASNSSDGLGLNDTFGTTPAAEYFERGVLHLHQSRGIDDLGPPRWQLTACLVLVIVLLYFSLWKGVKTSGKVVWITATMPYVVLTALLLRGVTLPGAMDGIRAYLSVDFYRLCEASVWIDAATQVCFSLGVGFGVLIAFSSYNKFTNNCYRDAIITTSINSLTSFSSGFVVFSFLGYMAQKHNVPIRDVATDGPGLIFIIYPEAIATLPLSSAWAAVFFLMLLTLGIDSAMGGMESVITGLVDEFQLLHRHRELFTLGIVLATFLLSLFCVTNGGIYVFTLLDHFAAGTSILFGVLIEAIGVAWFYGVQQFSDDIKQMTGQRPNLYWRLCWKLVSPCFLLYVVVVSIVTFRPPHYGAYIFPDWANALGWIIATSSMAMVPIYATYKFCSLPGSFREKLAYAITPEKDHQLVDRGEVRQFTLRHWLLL

SMILES | Ki ([1]; read-out: DAT binding Ki) [nM] | Ki [2] [nM] | Binding selectivity DAT/SERT [2] | Ki [3] [nM] | Binding selectivity DAT/NET [4] | Ki [1, 6] [nM] | Ki [5] [nM] | Binding selectivity DAT/M1 [5] | Ki [1] [nM]
COC(=O)C1C(OC(c2ccc(Cl)cc2)c2ccc(Cl)cc2)CC2CCC1N2C (racemic) [(±)-14] | 23.4 ± 1.5 | – | – | – | – | – | – | – | –
CCOC(=O)C1C(OC(c2ccc(Cl)cc2)c2ccc(Cl)cc2)CC2CCC1N2C (racemic) [(±)-15] | 22 ± 0.84 | – | – | – | – | – | – | – | –
COC(=O)[C@@H]1C2CCC(C[C@@H]1OC(c1ccc(F)cc1)c1ccc(F)cc1)N2C (some centres unmarked) [Compound 1a] | – | 689 ± 58.4 | 234 | 269 | 91 | 2.94 | 133 ± 4.16 | 45 | –
CCOC(=O)[C@@H]1C2CCC(C[C@@H]1OC(c1ccc(F)cc1)c1ccc(F)cc1)N2C (some centres unmarked) [Compound 1b] | – | 1850 ± 270 | 269 | 629 ± 31 | 91 | 6.87 ± 0.33 | 1890 ± 132 | 275 | –
CN1C2CCC1[C@@H](CO)[C@@H](OC(c1ccc(F)cc1)c1ccc(F)cc1)C2 (stereo partly drawn) [Compound 2, S-(+)-2β-hydroxymethyl-3α-[bis(4-fluorophenyl)methoxy]tropane] | – | 910 ± 65 | 258 | – | 279 | – | 109 ± 15.1 | 31 | 3.52 ± 0.42
C=C[C@@H]1C2CCC(C[C@@H]1OC(c1ccc(F)cc1)c1ccc(F)cc1)N2C (stereo partly drawn) [Compound 4, S-(+)-2β-Ethenyl-3α-[bis(4-fluorophenyl)methoxy]tropane] | – | 1790 ± 114 | 989 | – | 261 | 1.81 | 163 ± 23.1 | 90 | –
COC(=O)/C=C/[C@@H]1C2CCC(C[C@@H]1OC(c1ccc(F)cc1)c1ccc(F)cc1)N2C (stereo partly drawn) [Compound 5, S-(+)-2β-(2′-(methoxycarbonyl)eth-1′-enyl)-3α-[bis(4-fluorophenyl)methoxy]tropane] | – | 572 ± 51 | 115 | – | 54 | 4.69 ± 0.6 | 1380 ± 81 | 278 | 4.96
COC(=O)CC[C@@H]1C2CCC(C[C@@H]1OC(c1ccc(F)cc1)c1ccc(F)cc1)N2C (stereo partly drawn) [Compound 6, S-(+)-2β-(2′-(Methoxycarbonyl)ethyl)-3α-[bis(4-fluorophenyl)methoxy]tropane] | – | 1070 ± 118 | 286 | – | 121 | 3.74 | 3110 ± 435 | 831 | –

Reference: US8383817B2, “Benztropine compounds and uses thereof” (The United States of America, as represented by the …, priority 2005, dated 2013)
